Assay results: US20180015065A1, “METHODS OF TREATING UREA CYCLE DISORDERS” (Horizon Therapeutics, LLC, priority 2013, published 2018)
Several values for one entry are separate records, joined by “and”; a condition that tells them apart may be missing. Equal values may be shown once. Read-outs that look alike come from different tables or passages of the source.

Key:
[1] = test system: ammonia; details: cited from earlier work
[2] = Spot urinary PAGN level by age group, all studies; assay type: in vivo, human; details: spot urine after overnight fast
Experimental: Subjects from all studies who had spot urine samples were divided into three age groups: less than 2 years of age; 2 to less than 6 years of age; and 6 years of age and older. Spot urine samples were collected from subjects after an overnight fast, and urinary PAGN levels were measured.

[3] = Spot urinary PAGN level by dose category, HPN-100-012 safety extension; assay type: in vivo, human; details: pediatric subjects under 6 years, spot urine at 0 hours after overnight fast
Experimental: Pediatric subjects under 6 years of age from the HPN-100-012 safety extension study were divided into three dosing groups: less than 6 mL/m^2, 6-10 mL/m^2, and greater than 10 mL/m^2. Spot urine samples were collected from subjects at 0 hours (i.e., after an overnight fast), and urinary PAGN levels were measured.

[4] = phase 1; dosages equivalent to the highest approved NaPBA dosage of 20 g/day; cited from earlier work
[5] = Spot urinary PAGN level by BSA group, subjects 2 years of age and older; assay type: in vivo, human
Experimental: (§1) Subjects in Example 4 from all UCD studies and the healthy volunteer study (HPN-100-010) who were 2 years of age and older were divided into two groups based on their BSA: less than or equal to 1.3 m^2 (≦1.3 m^2) and greater than 1.3 m^2 (>1.3 m^2). Spot urine samples were collected from subjects at 24 hours (i.e., after an overnight fast), and urinary PAGN levels were measured.

[6] = Spot urinary PAGN level by BSA group, all UCD studies and healthy volunteer study HPN-100-010; assay type: in vivo, human; details: spot urine at 24 hours after overnight fast
Experimental: as §1, with “Subjects” for “Subjects in Example 4”, “(HPN-100-010)” for “(HPN-100-010) who were 2 years of age and older”

[7] = BSA > 1.3 m^2, spot urine at 24 hours after overnight fast
[8] = BSA ≦ 1.3 m^2, spot urine at 24 hours after overnight fast

## O=C(CCCc1ccccc1)OCC(COC(=O)CCCc1ccccc1)OC(=O)CCCc1ccccc1 [HPN-100, glyceryl tri-[4-phenylbutyrate]]
[1]; HPN-100-012 safety extension, pediatric UCD patients under six years
  Mean ammonia values: within normal limits
[1]; phase 2 HPN-100-005, 11 pediatric UCD patients age six years and up, PBA equimolar dosage
  Ammonia control compared with NaPBA: at least equivalent to NaPBA
[1]; phase 2 studies overall, equivalent dosages
  Ammonia control compared with NaPBA: at least equal to NaPBA
[1]; phase 3 HPN-100-006, 45 adult UCD patients, PBA equivalent dosage
  Ammonia control compared with NaPBA: non-inferior to NaPBA
[1]; phase 3 extended dosing HPN-100-007 and HPN-100-005 safety extension, adult and pediatric UCD subjects
  Mean ammonia levels: within normal limit
[2]; age group 2-<6 years
  U-PAGN, 10th percentile: 1717 µg/mL
  U-PAGN, 25th percentile: 5146 µg/mL
  U-PAGN, 75th percentile: 20603 µg/mL
  U-PAGN, 90th percentile: 27728 µg/mL
  U-PAGN, maximum: 43372 µg/mL
  U-PAGN, mean: 13420 µg/mL
  U-PAGN, median: 12114 µg/mL
  U-PAGN, minimum: 119 µg/mL
[2]; age group <2 years
  U-PAGN, 10th percentile: 3265 µg/mL
  U-PAGN, 25th percentile: 8996 µg/mL
  U-PAGN, 75th percentile: 25019 µg/mL
  U-PAGN, 90th percentile: 28028 µg/mL
  U-PAGN, maximum: 44298 µg/mL
  U-PAGN, mean: 17330 µg/mL
  U-PAGN, median: 17229 µg/mL
  U-PAGN, minimum: 348 µg/mL
[2]; age group ≧6 years
  U-PAGN, 10th percentile: 1564 µg/mL
  U-PAGN, 25th percentile: 4032 µg/mL
  U-PAGN, 75th percentile: 13846 µg/mL
  U-PAGN, 90th percentile: 21633 µg/mL
  U-PAGN, maximum: 60960 µg/mL
  U-PAGN, mean: 10103 µg/mL
  U-PAGN, median: 7185 µg/mL
  U-PAGN, minimum: 642 µg/mL
[3]; dose 6-10 mL/m^2
  Urinary PAGN, 10th percentile: 1288 µg/mL
  Urinary PAGN, 25th percentile: 3053 µg/mL
  Urinary PAGN, 75th percentile: 20796 µg/mL
  Urinary PAGN, 90th percentile: 24429 µg/mL
  Urinary PAGN, mean: 12313 µg/mL
  Urinary PAGN, median: 12144 µg/mL
[3]; dose <6 mL/m^2
  Urinary PAGN, 10th percentile: 643 µg/mL
  Urinary PAGN, 25th percentile: 1256 µg/mL
  Urinary PAGN, 75th percentile: 14290 µg/mL
  Urinary PAGN, 90th percentile: 20797 µg/mL
  Urinary PAGN, mean: 8353 µg/mL
  Urinary PAGN, median: 3298 µg/mL
[3]; dose >10 mL/m^2
  Urinary PAGN, 10th percentile: 264 µg/mL
  Urinary PAGN, 25th percentile: 6990 µg/mL
  Urinary PAGN, 75th percentile: 26247 µg/mL
  Urinary PAGN, 90th percentile: 28084 µg/mL
  Urinary PAGN, mean: 16842 µg/mL
  Urinary PAGN, median: 17089 µg/mL
[4]
  Safety of administration: established the safety
[5]; [7]
  U-PAGN, 5th percentile: 3379.24 µg/mL
  U-PAGN, 10th percentile: 4078.79 µg/mL
  U-PAGN, 25th percentile: 5259 µg/mL and 5259.01 µg/mL
  U-PAGN, 75th percentile: 11916.08 µg/mL
  U-PAGN, 90th percentile: 15993.51 µg/mL
  U-PAGN, 95th percentile: 20320.32 µg/mL
  U-PAGN, maximum: 30304.04 µg/mL
  U-PAGN, mean: 9058.68 µg/mL
  U-PAGN, median: 7748.84 µg/mL
  U-PAGN, minimum: 1157.49 µg/mL
[5]; [8]
  U-PAGN, 5th percentile: 621.6 µg/mL
  U-PAGN, 10th percentile: 3479.50 µg/mL
  U-PAGN, 25th percentile: 7412 µg/mL and 7412.48 µg/mL
  U-PAGN, 75th percentile: 23635.08 µg/mL
  U-PAGN, 90th percentile: 29835.07 µg/mL
  U-PAGN, 95th percentile: 33943.83 µg/mL
  U-PAGN, maximum: 43372.15 µg/mL
  U-PAGN, mean: 16186.11 µg/mL
  U-PAGN, median: 15869.85 µg/mL
  U-PAGN, minimum: 119.5 µg/mL
[6]; BSA > 1.3 m^2
  U-PAGN, 5th percentile: 3379.24 µg/mL
  U-PAGN, 10th percentile: 4078.79 µg/mL
  U-PAGN, 25th percentile: 5259 µg/mL and 5259.01 µg/mL
  U-PAGN, 50th percentile: 7748.84 µg/mL
  U-PAGN, 75th percentile: 11916.08 µg/mL
  U-PAGN, 90th percentile: 15993.51 µg/mL
  U-PAGN, 95th percentile: 20320.32 µg/mL
  U-PAGN, maximum: 30304.04 µg/mL
  U-PAGN, mean: 9058.68 µg/mL
  U-PAGN, minimum: 1157.49 µg/mL
[6]; BSA ≦ 1.3 m^2
  U-PAGN, 5th percentile: 1061.84 µg/mL
  U-PAGN, 10th percentile: 3645.97 µg/mL
  U-PAGN, 25th percentile: 8390 µg/mL and 8390.07 µg/mL
  U-PAGN, 50th percentile: 17075.13 µg/mL
  U-PAGN, 75th percentile: 25465.73 µg/mL
  U-PAGN, 90th percentile: 30830 µg/mL
  U-PAGN, 95th percentile: 35516.41 µg/mL
  U-PAGN, maximum: 44298.26 µg/mL
  U-PAGN, mean: 17547.48 µg/mL
  U-PAGN, minimum: 119.47 µg/mL
